In one series the target is hCA I (Homo sapiens, UniProt P00915). As to the kind of experiment: Stopped flow CO2 hydrase assay.
Another series addresses hCA II (Homo sapiens, UniProt P00918). As to the kind of experiment: Stopped flow CO2 hydrase assay.
Another series relates to SR. As to the kind of experiment: NCI-60 single-dose antiproliferative assay (SRB). It is filed as cell-based. Particulars: Homo sapiens, 10 μM single dose, Leukemia, read-out: Cell Growth inhibition Percent. How it is done: (§1) From the newly synthesized compounds, eleven compounds (4c, 4d, 5, 9a, 9b, 11a, 11b, 13b, 13c, 15b, and 15c) were selected by the National Cancer Institute (NCI) Developmental Therapeutics Program (DTP), Bethesda, Maryland, USA for the in vitro anti-proliferative activity evaluation. The selected compounds were examined at 10 μM dose against the NCI 60-cell line panel. This panel consists of nine cell line groups of leukemia, non-small cell lung carcinoma (NSCLC), melanoma, colon, CNS, ovarian, renal, prostate, and breast cancers. The results are reported as mean-graph of the percent growth relative to control and presented as percentage growth inhibition (GI%), furthermore, mean GI% of each compound over all panel cell lines was calculated (Table 1; Additional file 1; S3: In vitro biological activity).
(§2) From the newly synthesized compounds, eleven compounds were selected by the National Cancer Institute (NCI) Developmental Therapeutics Program (DTP), Bethesda, Maryland, USA for the in vitro anti-proliferative activity evaluation (For further details see supplementary materials).
(§3) NCI In-vitro Cancer Screening is a two-phase procedure that starts with the assessment of all compounds against the sixty NCI cell line panel depicting leukemia, NSCLC, CNS cancer, melanoma, prostate cancer, breast cancer, renal cancer, colon cancer and ovarian cancer cell lines at a single point of 10μM. The output from the single-dose screen is reportable as a mean graph.
(§4) The human tumor cell lines of the cancer screening panel were grown in RPMI 1640 medium containing 5% fetal bovine serum and 2 mM L-glutamine. For a typical screening experiment, cells were inoculated into 96 well microtiter plates in […] at plating densities ranging from 5000 to 40,000 cells/well depending on the doubling time of individual cell lines. After cell inoculation, the microtiter plates were incubated at 37 °C, 5% CO2, 95% air and 100% relative humidity for 24 h prior to addition of experimental drugs. After 24 h, two plates of each cell line were fixed in situ with trichloroacetic acid (TCA), to represent a measurement of the cell population for each cell line at the time of drug addition (Tz). Experimental drugs were solubilized in dimethyl sulfoxide at 400-fold the desired final maximum test concentration and stored frozen prior to use. At the time of drug addition, an aliquot of frozen concentrate was thawed and diluted to twice the desired final maximum test concentration with complete medium containing 50 µg/ml gentamicin. Aliquot of 100 µl of the drug dilution was added to the appropriate microtiter wells already containing 100 µl of medium, resulting in the required final drug concentration (10 µM). Triplicate wells were prepared for each individual dose. Following drug addition, the plates were incubated for an additional 48 h at 37 °C, 5% CO2, 95% air, and 100% relative humidity. For adherent cells, the assay was terminated by the addition of cold TCA. Cells were fixed in situ by the gentle addition of 50 µl of cold 50% (w/v) TCA (final concentration, 10% TCA) and incubated for 60 min at 4 °C. The supernatant was discarded, and the plates were washed five times with tap water and air dried. Sulforhodamine B (SRB) solution (100 µl) at 0.4% (w/v) in 1% acetic acid was added to each well, and plates were incubated for 10 min at room temperature. After staining, unbound dye was removed by washing five times with 1% acetic acid and the plates were air dried. Bound stain was subsequently solubilized with 10 mM trizma base, and the absorbance was read on an automated plate reader at a wavelength of 515 nm. For suspension cells, the methodology was the same except that the assay was terminated by fixing settled cells at the bottom of the wells by gently adding 50 µl of 80% TCA (final concentration, 16% TCA). […]

The subject of a further series is CAKI-1. As to the kind of experiment: NCI-60 single-dose antiproliferative assay (SRB). It is filed as cell-based. Conditions: Homo sapiens; 10 μM single dose; CAKI-1, Renal cancer; read-out: Cell Growth inhibition Percent. The method, then: as §1, §2, §3, §4
In the next series the test system is LOX IMVI. As to the kind of experiment: NCI-60 single-dose antiproliferative assay (SRB). Type of series: cell-based. Particulars: Homo sapiens, 10 μM single dose, Melanoma, read-out: Cell Growth inhibition Percent. The method, then:
as §1, §2, §3, §4

A further series concerns MCF7. As to the kind of experiment: NCI-60 single-dose antiproliferative assay (SRB). It is filed as cell-based. Particulars: Homo sapiens; 10 μM single dose; MCF7, Breast cancer; read-out: Cell Growth inhibition Percent. How it is done: as §1, §2, §3, §4
A further series deals with NCI-H226. As to the kind of experiment: NCI-60 single-dose antiproliferative assay (SRB). It is filed as cell-based. Particulars: Homo sapiens; 10 μM single dose; NCI-H226, Non-small cell lung cancer; read-out: Cell Growth inhibition Percent. The method, then:
as §1, §2, §3, §4

Another series deals with SK-MEL-5. As to the kind of experiment: NCI-60 single-dose antiproliferative assay (SRB). Particulars: Homo sapiens; 10 μM single dose; SK-MEL-5, Melanoma; read-out: Cell Growth inhibition Percent. It is filed as cell-based. The method, then: as §1, §2, §3, §4
For a further series, the system named is HOP-62. As to the kind of experiment: NCI-60 single-dose antiproliferative assay (SRB). It is filed as cell-based. Conditions: Homo sapiens; 10 μM single dose; HOP-62, Non-small cell lung cancer; read-out: Cell Growth inhibition Percent. How it is done: as §1, §2, §3, §4
In a further series the test system is NCI-H23. As to the kind of experiment: NCI-60 single-dose antiproliferative assay (SRB). It is filed as cell-based. Conditions: Homo sapiens; 10 μM single dose; NCI-H23, Non-small cell lung cancer; read-out: Cell Growth inhibition Percent. How it is done:
as §1, §2, §3, §4

The next series relates to SF-268. As to the kind of experiment: NCI-60 single-dose antiproliferative assay (SRB). Particulars: Homo sapiens; 10 μM single dose; SF-268, CNS cancer; read-out: Cell Growth inhibition Percent. Type of series: cell-based. The method, then: as §1, §2, §3, §4
The test system of a further series is EKVX. As to the kind of experiment: NCI-60 single-dose antiproliferative assay (SRB). It is filed as cell-based. Conditions: Homo sapiens, 10 μM single dose, Non-small cell lung cancer, read-out: Cell Growth inhibition Percent. How it is done:
as §1, §2, §3, §4

In another series the test system is ACHN. As to the kind of experiment: NCI-60 single-dose antiproliferative assay (SRB). Type of series: cell-based. Conditions: Homo sapiens, 10 μM single dose, Renal cancer, read-out: Cell Growth inhibition Percent. How it is done:
as §1, §2, §3, §4

A further series relates to IGROV1. As to the kind of experiment: NCI-60 single-dose antiproliferative assay (SRB). Type of series: cell-based. Particulars: Homo sapiens, IGROV-1; 10 μM single dose; IGROV1, Ovarian Cancer; read-out: Cell Growth inhibition Percent. The method, then:
as §1, §2, §3, §4

The next series concerns MDA-MB-231/ATCC. As to the kind of experiment: NCI-60 single-dose antiproliferative assay (SRB). Type of series: cell-based. Particulars: Homo sapiens, 10 μM single dose, Breast cancer, read-out: Cell Growth inhibition Percent. How it is done:
as §1, §2, §3, §4

The test system of the next series is PC-3. As to the kind of experiment: NCI-60 single-dose antiproliferative assay (SRB). It is filed as cell-based. Conditions: Homo sapiens; 10 μM single dose; PC-3, Prostate cancer; read-out: Cell Growth inhibition Percent. The method, then: as §1, §2, §3, §4
In a further series the test system is HOP-92. As to the kind of experiment: NCI-60 single-dose antiproliferative assay (SRB). Conditions: Homo sapiens; 10 μM single dose; HOP-92, Non-small cell lung cancer; read-out: Cell Growth inhibition Percent. It is filed as cell-based. The method, then:
as §1, §2, §3, §4

In another series the test system is M14. As to the kind of experiment: NCI-60 single-dose antiproliferative assay (SRB). Conditions: Homo sapiens; 10 μM single dose; M14, Melanoma; read-out: Cell Growth inhibition Percent. It is filed as cell-based. The method, then:
as §1, §2, §3, §4

hCA I, sequence (P00915 whole entry): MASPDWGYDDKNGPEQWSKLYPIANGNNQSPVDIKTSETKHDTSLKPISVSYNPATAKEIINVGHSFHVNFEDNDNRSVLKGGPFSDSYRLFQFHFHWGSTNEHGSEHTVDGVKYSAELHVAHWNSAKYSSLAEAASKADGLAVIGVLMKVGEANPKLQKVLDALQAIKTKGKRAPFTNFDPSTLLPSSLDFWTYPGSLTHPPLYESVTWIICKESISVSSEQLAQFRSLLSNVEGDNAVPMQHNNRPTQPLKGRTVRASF

In turn, `NS(=O)(=O)c1ccc(NCc2ccc(NC=C3C(=O)Nc4ccccc43)cc2)cc1` [Compound 11a, 4-{[4-({[2-Oxoindolin-3-ylidene]methyl}amino)benzyl]amino}benzenesulfonamide] gave a melting point of 195 to 200 °C. Moreover, the inhibitory constant (Ki) on hCA I came out at 321 nM. For the same molecule, the Ki at hCA II came out at 746 nM. Besides, in the series with SR, the inhibition at 10 µM stood at 18.7%. Also, the inhibition at 10 µM with CAKI-1 turned out to be 34.7%. For the same molecule, the inhibition at 10 µM in the series with LOX IMVI stood at 3.3%. The inhibition at 10 µM in the series on MCF7 is 23%. Moreover, the inhibition at 10 µM in the series with NCI-H226 was found to be 19.1%. Further, the inhibition at 10 µM in the series with SK-MEL-5 stood at 5.94%. Further, the inhibition at 10 µM with HOP-62 was determined as 30.5%. Besides, the inhibition at 10 µM in the series on NCI-H23 stood at 12%. For the same molecule, in the series with SF-268, the inhibition at 10 µM was found to be 11.3%. In the series with EKVX, the inhibition at 10 µM stood at 47.4%. In addition, in the series on ACHN, the inhibition at 10 µM is 7.22%. Moreover, in the series with IGROV1, the inhibition at 10 µM is 32.7%. In the series on MDA-MB-231/ATCC, the inhibition at 10 µM was determined as 16.5%. Besides, in the series with PC-3, the inhibition at 10 µM amounted to 7.36%.
For `NS(=O)(=O)c1nnc(NC=C2C(=O)Nc3ccccc32)s1` [Compound 4d, 5-{[(2-Oxoindolin-3-ylidene)methyl]amino}-1,3,4-thiadiazole-2-sulfonamide], the melting point fell in the range of 210 to 216 °C. This molecule yielded a Ki at hCA I of 8.4 nM. The same molecule came in with a Ki at hCA II of 3.9 nM. In addition, in the series on SR, the inhibition at 10 µM stood at 1.71%. The inhibition at 10 µM in the series on CAKI-1 was 13.5%. The inhibition at 10 µM in the series with MCF7 is 12.4%. Further, the inhibition at 10 µM in the series with NCI-H226 was found to be 4.95%. Besides, the inhibition at 10 µM with HOP-92 came out at 11.9%. Besides, the inhibition at 10 µM in the series with SK-MEL-5 was 1.52%. Further, the inhibition at 10 µM in the series with HOP-62 amounted to 13.4%. In addition, in the series on NCI-H23, the inhibition at 10 µM amounted to 3.7%. For the same molecule, in the series on M14, the inhibition at 10 µM worked out at 6.04%. Besides, in the series with EKVX, the inhibition at 10 µM was 15.8%. Besides, the inhibition at 10 µM with ACHN was determined as 6.28%. Besides, the inhibition at 10 µM in the series on IGROV1 was determined as 23.5%. In addition, the inhibition at 10 µM in the series with MDA-MB-231/ATCC amounted to 7.66%. Moreover, the inhibition at 10 µM in the series on PC-3 was 10.7%.
`NS(=O)(=O)N/C=C1/C(=O)Nc2ccccc21` [Compound 5, 3-(sulfamidmethylene)indoline-2-one] came in with a melting point of 158 to 160 °C. This molecule registered a Ki on hCA I of 6350 nM. The same molecule returned a Ki at hCA II of 913 nM. Moreover, in the series with CAKI-1, the inhibition at 10 µM was 11.2%. Also, in the series on MCF7, the inhibition at 10 µM was 6.19%. Also, the inhibition at 10 µM with NCI-H226 is 8.23%. Besides, in the series with HOP-92, the inhibition at 10 µM turned out to be 11%. Besides, the inhibition at 10 µM in the series with SK-MEL-5 was 1.04%. Further, the inhibition at 10 µM in the series with HOP-62 was 9.49%. The inhibition at 10 µM with NCI-H23 worked out at 13.3%. Moreover, in the series on SF-268, the inhibition at 10 µM was 2.04%. In addition, the inhibition at 10 µM in the series on M14 stood at 2.01%. Moreover, the inhibition at 10 µM with EKVX amounted to 18.8%. In addition, in the series with ACHN, the inhibition at 10 µM was 10.9%. In addition, the inhibition at 10 µM in the series with IGROV1 worked out at 18.6%. The inhibition at 10 µM in the series with MDA-MB-231/ATCC stood at 5.14%. In the series with PC-3, the inhibition at 10 µM was 5.36%.
Take `O=C1Nc2ccccc2C1=CNc1ccc(C(=O)C=CNc2nccs2)cc1` [Compound 13c, 3-{[(4-{3-[Thiazol-2-ylamino]acryloyl}phenyl)amino]methylene}indolin-2-one]: the melting point was 260 to 262 °C. Besides, at hCA I, the Ki was over 10000 nM. On hCA II, the Ki is over 10000 nM. Moreover, the inhibition at 10 µM in the series on SR amounted to 6%. In addition, the inhibition at 10 µM in the series on CAKI-1 turned out to be 30.8%. Further, the inhibition at 10 µM with LOX IMVI was 9.06%. Further, in the series with MCF7, the inhibition at 10 µM worked out at 28.1%. Further, in the series with NCI-H226, the inhibition at 10 µM was 1.09%. Also, the inhibition at 10 µM in the series with HOP-92 is 11.4%. In the series on SK-MEL-5, the inhibition at 10 µM was 5.29%. The inhibition at 10 µM in the series on HOP-62 was 12%. Besides, in the series on NCI-H23, the inhibition at 10 µM is 25.9%. The inhibition at 10 µM in the series on EKVX was 16.8%. Besides, the inhibition at 10 µM in the series on IGROV1 was 5.94%. For the same molecule, the inhibition at 10 µM in the series on MDA-MB-231/ATCC came out at 10.7%. Further, the inhibition at 10 µM in the series on PC-3 was 15.3%.

(Values after article PMC10353187, “Discovery of a new potent oxindole multi-kinase inhibitor among a series of designed 3-alkenyl-oxindoles with ancillary carbonic anhydrase inhibitory activity as antiproliferative agents” (BMC Chemistry, 2023).)
